Test results taken from patent publication US20100298141A1, “SUBSTITUTED PYRIDINE N-OXIDE HERBICIDES” (E. I. DU PONT DE NEMOURS AND COMPANY, priority 2007, published 2010).

What was measured:
downy brome = experiment: Test C pre-/postemergence test; type: in vivo, Bromus tectorum
Outline: (§1)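 Seeds were planted and treated preemergence with test chemical in a non-phytotoxic solvent mixture containing surfactant. Postemergence applications of the same formulation went onto plants 2 to 18 cm tall (1- to 4-leaf stage). A dash marks no test result.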

green foxtail = experiment: Test C pre-/postemergence test; type: in vivo, Setaria viridis
Outline: as §1

Surinam grass = experiment: Test C pre-/postemergence test; type: in vivo, Brachiaria decumbens
Outline: as §1

lambsquarters = experiment: Test C pre-/postemergence test; type: in vivo, Chenopodium album; details: for Plant response rating, Lambsquarters: scale 0 to 100, 0 no effect, 100 complete control
Outline: as §1

johnsongrass = experiment: Test C pre-/postemergence test; type: in vivo, Sorghum halepense
Outline: as §1

giant foxtail = experiment: Test C pre-/postemergence test; type: in vivo, Setaria faberii
Outline: as §1

redroot pigweed = experiment: Test A pre-/postemergence greenhouse test; type: in vivo, Amaranthus retroflexus; details: for Plant response rating, Pigweed: 0 to 100 scale where 0 is no effect and 100 is complete control; for Pigweed plant response rating: 0 to 100 scale
Outline: (§2)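 Each test compound, dissolved in a non-phytotoxic solvent mixture with surfactant, was sprayed directly onto seeded soil (loam/sand blend) and, at the same moment, onto seedlings carrying one to two leaves. Around ten greenhouse days later, plants were rated visually for injury relative to untreated controls.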

velvetleaf [1] = experiment: Test C pre-/postemergence test; type: in vivo, Abutilon theophrasti
Outline: as §1

wild oat = experiment: Test C pre-/postemergence test; type: in vivo, Avena fatua
Outline: as §1

crabgrass = experiment: Test C pre-/postemergence test; type: in vivo, Digitaria sanguinalis
Outline: as §1

duck salad = experiment: Test C flooded paddy test; type: in vivo, Heteranthera limosa; details: Flood
Outline: (§3)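 Visual injury ratings against untreated controls, taken 13 to 15 days after compound was added to paddy water standing 3 cm above the soil.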

common ragweed = experiment: Test C pre-/postemergence test; type: in vivo, Ambrosia elation
Outline: as §1

eastern black nightshade = experiment: Test C pre-/postemergence test; type: in vivo, Solanum ptycanthum
Outline: as §1

cocklebur = experiment: Test C pre-/postemergence test; type: in vivo, Xanthium strumarium
Outline: as §1

rice = experiment: Test C flooded paddy test; type: in vivo, Oryza sativa; details: Flood
Outline: as §3

velvetleaf [2] = experiment: Test A pre-/postemergence greenhouse test; type: in vivo, Abutilon theophrasti; details: for Plant response rating, Velvetleaf: 0 to 100 scale where 0 is no effect and 100 is complete control; for Velvetleaf plant response rating: 0 to 100 scale
Outline: as §2

barnyardgrass = experiment: Test A pre-/postemergence greenhouse test; type: in vivo, Echinochloa crus-galli; details: for Plant response rating, Barnyardgrass: 0 to 100 scale where 0 is no effect and 100 is complete control; for Barnyardgrass plant response rating: 0 to 100 scale
Outline: as §2

kochia = experiment: Test C pre-/postemergence test; type: in vivo, Kochia scoparia
Outline: as §1

[3] = 62 g ai/ha, Preemergence, scale 0 to 100
[4] = 125 g ai/ha, preemergence, scale 0 (no effect) to 100 (complete control)
[5] = Postemergence, 125 g ai/ha, scale 0 to 100, 0 no effect, 100 complete control
[6] = Postemergence, 250 g ai/ha, scale 0 to 100, 0 no effect, 100 complete control
[7] = Preemergence, 31 g ai/ha, scale 0 to 100 (0 no effect, 100 complete control)
[8] = preemergence, 250 g ai/ha, scale 0 (no effect) to 100 (complete control)
[9] = Postemergence, 500 g ai/ha, 0 is no effect, 100 is complete control
[10] = Preemergence, 125 g ai/ha, 0 no effect, 100 complete control
[11] = 62 g ai/ha, scale 0 to 100 (0 no effect, 100 complete control)
[12] = 250 g ai/ha, scale 0 to 100, 0 no effect, 100 complete control, 13 to 15 days

Cn1nc(C(F)(F)C(F)(F)F)c(C[S+]([O-])c2cccc[n+]2[O-])c1OCC(F)(F)F (stereo not drawn) [Compound 79]
Bromegrass, Downy plant response rating (downy brome; [3]): 50 | Bromegrass, Downy plant response rating (downy brome; [4]): 100 | Plant response rating (0 to 100), Bromegrass, Downy (downy brome; Postemergence, 31 g ai/ha): 0 | Plant response rating (0 to 100), Bromegrass, Downy (downy brome; Postemergence, 62 g ai/ha): 0 | Plant response rating, Bromegrass, Downy (downy brome; [5]): 20 | Plant response rating, Bromegrass, Downy (downy brome; [6]): 60 | Plant response rating, Bromegrass, Downy (downy brome; [7]): 50 | Bromegrass, Downy plant response rating (downy brome; [8]): 100 | Foxtail, Green plant response rating (green foxtail; [3]): 85 | Foxtail, Green plant response rating (green foxtail; [4]): 100 | Plant response rating (0 to 100), Foxtail, Green (green foxtail; Postemergence, 31 g ai/ha): 0 | Plant response rating (0 to 100), Foxtail, Green (green foxtail; Postemergence, 62 g ai/ha): 60 | Plant response rating, Foxtail, Green (green foxtail; [5]): 70 | Plant response rating, Foxtail, Green (green foxtail; [6]): 85 | Plant response rating, Foxtail, Green (green foxtail; [7]): 65 | Foxtail, Green plant response rating (green foxtail; [8]): 100 | Surinam Grass plant response rating (Surinam grass; [3]): 85 | Surinam Grass plant response rating (Surinam grass; [4]): 98 | Plant response rating (0 to 100), Surinam Grass (Surinam grass; Postemergence, 31 g ai/ha): 0 | Plant response rating (0 to 100), Surinam Grass (Surinam grass; Postemergence, 62 g ai/ha): 0 | Plant response rating, Surinam Grass (Surinam grass; [5]): 30 | Plant response rating, Surinam Grass (Surinam grass; [6]): 85 | Plant response rating, Surinam Grass (Surinam grass; [7]): 60 | Surinam Grass plant response rating (Surinam grass; [8]): 100 | Lambsquarters plant response rating (lambsquarters; [3]): 90 | Lambsquarters plant response rating (lambsquarters; [4]): 100 | Plant response rating (0 to 100), Lambsquarters (lambsquarters; Postemergence, 62 g ai/ha): 0 | Plant response rating, Lambsquarters (lambsquarters; Postemergence, 125 g ai/ha): 0 | Plant response rating, Lambsquarters (lambsquarters; Postemergence, 250 g ai/ha): 70 | Lambsquarters plant response rating (lambsquarters; [8]): 100 | Johnsongrass plant response rating (johnsongrass; [3]): 95 | Johnsongrass plant response rating (johnsongrass; [4]): 95 | Plant response rating (0 to 100), Johnsongrass (johnsongrass; Postemergence, 31 g ai/ha): 0 | Plant response rating (0 to 100), Johnsongrass (johnsongrass; Postemergence, 62 g ai/ha): 20 | Plant response rating, Johnsongrass (johnsongrass; [5]): 25 | Plant response rating, Johnsongrass (johnsongrass; [6]): 50 | Plant response rating, Johnsongrass (johnsongrass; [7]): 80 | Johnsongrass plant response rating (johnsongrass; [8]): 95 | Foxtail, Giant plant response rating (giant foxtail; [3]): 70 | Foxtail, Giant plant response rating (giant foxtail; [4]): 80 | Plant response rating (0 to 100), Foxtail, Giant (giant foxtail; Postemergence, 31 g ai/ha): 0 | Plant response rating (0 to 100), Foxtail, Giant (giant foxtail; Postemergence, 62 g ai/ha): 0 | Plant response rating, Foxtail, Giant (giant foxtail; [5]): 50 | Plant response rating, Foxtail, Giant (giant foxtail; [6]): 70 | Plant response rating, Foxtail, Giant (giant foxtail; [7]): 70 | Foxtail, Giant plant response rating (giant foxtail; [8]): 100 | Plant response rating, Pigweed (redroot pigweed; Postemergence, 125 g ai/ha): 30 | Pigweed plant response rating (redroot pigweed; [9]): 70 | Pigweed plant response rating (redroot pigweed; [10]): 90 | Plant response rating, Pigweed (redroot pigweed; Preemergence, 500 g ai/ha): 100 | Velvetleaf plant response rating (velvetleaf [1]; [3]): 100 | Velvetleaf plant response rating (velvetleaf [1]; [4]): 100 | Plant response rating (0 to 100), Velvetleaf (velvetleaf [1]; Postemergence, 31 g ai/ha): 0 | Plant response rating (0 to 100), Velvetleaf (velvetleaf [1]; Postemergence, 62 g ai/ha): 0 | Plant response rating, Velvetleaf (velvetleaf [1]; [5]): 50 | Plant response rating, Velvetleaf (velvetleaf [1]; [6]): 70 | Plant response rating, Velvetleaf (velvetleaf [1]; [7]): 100 | Velvetleaf plant response rating (velvetleaf [1]; [8]): 100 | Oat, Wild plant response rating (wild oat; [3]): 70 | Oat, Wild plant response rating (wild oat; [4]): 85 | Plant response rating (0 to 100), Oat, Wild (wild oat; Postemergence, 31 g ai/ha): 0 | Plant response rating (0 to 100), Oat, Wild (wild oat; Postemergence, 62 g ai/ha): 35 | Plant response rating, Oat, Wild (wild oat; [5]): 40 | Plant response rating, Oat, Wild (wild oat; [6]): 50 | Plant response rating, Oat, Wild (wild oat; [7]): 70 | Oat, Wild plant response rating (wild oat; [8]): 90 | Crabgrass, Large plant response rating (crabgrass; [3]): 80 | Crabgrass, Large plant response rating (crabgrass; [4]): 100 | Plant response rating (0 to 100), Crabgrass, Large (crabgrass; Postemergence, 31 g ai/ha): 0 | Plant response rating (0 to 100), Crabgrass, Large (crabgrass; Postemergence, 62 g ai/ha): 0 | Plant response rating, Crabgrass, Large (crabgrass; [5]): 0 | Plant response rating, Crabgrass, Large (crabgrass; [6]): 50 | Plant response rating, Crabgrass, Large (crabgrass; [7]): 40 | Crabgrass, Large plant response rating (crabgrass; [8]): 100 | Plant response rating, Ducksalad (duck salad; [11]): 90 | Plant response rating, Ducksalad (duck salad; [12]): 100 | Ragweed plant response rating (common ragweed; [3]): 50 | Ragweed plant response rating (common ragweed; [4]): 100 | Plant response rating (0 to 100), Ragweed (common ragweed; Postemergence, 31 g ai/ha): 0 | Plant response rating (0 to 100), Ragweed (common ragweed; Postemergence, 62 g ai/ha): 40 | Plant response rating, Ragweed (common ragweed; [5]): 45 | Plant response rating, Ragweed (common ragweed; [6]): 50 | Plant response rating, Ragweed (common ragweed; [7]): 50 | Ragweed plant response rating (common ragweed; [8]): 100 | Nightshade plant response rating (eastern black nightshade; [3]): 50 | Nightshade plant response rating (eastern black nightshade; [4]): 50 | Plant response rating, Nightshade (eastern black nightshade; [7]): 40 | Nightshade plant response rating (eastern black nightshade; [8]): 100 | Cocklebur plant response rating (cocklebur; [3]): 0 | Cocklebur plant response rating (cocklebur; [4]): 50 | Plant response rating (0 to 100), Cocklebur (cocklebur; Postemergence, 31 g ai/ha): 0 | Plant response rating (0 to 100), Cocklebur (cocklebur; Postemergence, 62 g ai/ha): 0 | Plant response rating, Cocklebur (cocklebur; [5]): 0 | Plant response rating, Cocklebur (cocklebur; [6]): 0 | Plant response rating, Cocklebur (cocklebur; [7]): 0 | Cocklebur plant response rating (cocklebur; [8]): 50 | Plant response rating, Rice (rice; [11]): 70 | Plant response rating, Rice (rice; [12]): 80 | Plant response rating, Velvetleaf (velvetleaf [2]; Postemergence, 125 g ai/ha): 60 | Velvetleaf plant response rating (velvetleaf [2]; [9]): 80 | Velvetleaf plant response rating (velvetleaf [2]; [10]): 80 | Plant response rating, Velvetleaf (velvetleaf [2]; Preemergence, 500 g ai/ha): 100 | Plant response rating, Barnyardgrass (barnyardgrass; Postemergence, 125 g ai/ha): 80 | Barnyardgrass plant response rating (barnyardgrass; [9]): 90 | Barnyardgrass plant response rating (barnyardgrass; [10]): 100 | Plant response rating, Barnyardgrass (barnyardgrass; Preemergence, 500 g ai/ha): 100 | Kochia plant response rating (kochia; [3]): 100 | Kochia plant response rating (kochia; [4]): 100 | Plant response rating (0 to 100), Kochia (kochia; Postemergence, 31 g ai/ha): 0 | Plant response rating (0 to 100), Kochia (kochia; Postemergence, 62 g ai/ha): 0 | Plant response rating, Kochia (kochia; [5]): 0 | Plant response rating, Kochia (kochia; [6]): 0 | Plant response rating, Kochia (kochia; [7]): 100 | Kochia plant response rating (kochia; [8]): 100
